For one assay, the system named is Ishikawa cells. Briefly: Ishikawa Cell Alkaline Phosphatase Assay. The assay is classed as cell-based. To be noted: Homo sapiens, 48 h, read-out: % Activation. The protocol:
Ishikawa Cell Alkaline Phosphatase Assay
Cell Maintenance and Treatment
Ishikawa cells were maintained in DMEM/F12 (50%:50%) containing phenol red+10% fetal bovine serum and the medium was supplemented with 2 mM Glutamax, 1% Pen/Strap and 1 mM sodium pyruvate. Five days prior to the beginning of each experiment (treatment of cells) the medium was changed to phenol red-free DMEM/F12+10% dextran coated charcoal stripped serum. On the day before treatment, cells were harvested using 0.5% trypsin/EDTA and plated at a density of 5×10^4 cells/well in 96-well tissue culture plates. […] Cells were treated for 48 h prior to assay. […] Sample population for at each dose was n=8.
Alkaline Phosnhatase Assay
At the end of 48 h the media is aspirated and cells are washed three times with phosphate buffered saline (PBS). 50 μL of lysis buffer (0.1M Tris-HCl, pH 9.8, 0.2% Triton X-100) is added to each well. Plates are placed at -80° C. for a minimum of 15 minutes. Plates are thawed at 37° C. followed by the addition of 150 μL of 0.1M Tris-HCl, pH 9.8, containing 4 mM para-nitrophenylphosphate (pNPP) to each well (final concentration, 3 mM pNPP).
Absorbance and slope calculations were made using the KineticCalc Application program (Bio-Tek Instruments, Inc., Winooski, Vt.). Results are expressed as the mean±S.D. of the rate of enzyme reaction (slope) averaged over the linear portion of the kinetic reaction curve (optical density readings every 5 minutes for 30 minutes absorbance reading).
The four listed in the following were used as as reference standards:
A description of these methods is described by Holinka, C. F., Hata, H., Kuramoto, H. and Gurpide, E. (1986) Effects of steroid hormones and antisteroids on alkaline phosphatase activity in human endometrial cancer cells (Ishikawa Line). Cancer Research, 46:2771-2774, and by Littlefield, B. A., Gurpide, E., Markiewicz, L., McKinley, B. and Hochberg, R. B. (1990) A simple and sensitive microtiter plate estrogen bioassay based on stimulation alkaline phosphatase in Ishikawa cells; Estrogen action of D5 adrenal steroids. Endocrinology, 6:2757-2762.

Assay [1] deals with T1, estrogen receptor (Homo sapiens, UniProt P03372).
T1 sequence (P03372 1-595): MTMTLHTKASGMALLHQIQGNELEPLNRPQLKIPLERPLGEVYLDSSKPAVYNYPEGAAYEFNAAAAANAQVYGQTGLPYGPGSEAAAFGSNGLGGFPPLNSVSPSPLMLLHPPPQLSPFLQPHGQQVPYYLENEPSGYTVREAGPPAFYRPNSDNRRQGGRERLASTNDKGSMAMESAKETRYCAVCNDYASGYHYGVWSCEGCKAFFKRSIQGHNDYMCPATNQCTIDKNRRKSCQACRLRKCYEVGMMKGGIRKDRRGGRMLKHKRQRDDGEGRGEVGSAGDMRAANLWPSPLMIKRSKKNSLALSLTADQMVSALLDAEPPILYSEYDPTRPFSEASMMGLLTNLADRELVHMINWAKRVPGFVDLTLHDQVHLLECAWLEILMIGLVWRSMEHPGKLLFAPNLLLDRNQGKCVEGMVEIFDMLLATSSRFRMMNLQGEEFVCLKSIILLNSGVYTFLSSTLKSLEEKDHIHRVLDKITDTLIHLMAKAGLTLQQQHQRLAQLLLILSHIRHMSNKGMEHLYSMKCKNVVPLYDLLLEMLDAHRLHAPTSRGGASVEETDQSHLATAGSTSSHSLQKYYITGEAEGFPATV
Briefly: In vitro estrogen receptor binding assay (competition with [3H]-17β-estradiol). On the set-up: made in house; host or cells: CHO cells overexpressing the receptor (100,000 g cytosol).

In assay [2] the target is T1, estrogen receptor. Put plainly: 2X VIT ERE Transfection Assay (luciferase). To be noted: 24 h; read-out: % Activation. Set-up: expressed in transfected cells; host or cells: CHO (Chinese Hamster Ovary) cells, stably transfected. Type of assay: cell-based.
A further assay concerns uterine growth. To be noted: ovariectomized rat, compared with Tamoxifen; cited from earlier work.
Assay [3] concerns bone. Conditions: rat, in vivo; cited from earlier work.
The subject of assay [4] is bone. Conditions: in humans; cited from earlier work.
The test system of a further assay is uterus. Conditions: in vivo; cited from earlier work.

These results are taken from patent publication US5780497A, “2-phenyl-1-[4-(amino-1-yl-alk-1-ynyl)-benzyl]-1H-indol-5-ols as estrogenic agents” (American Home Products Corporation, priority 1997, dated 1998).

Take `Cc1c(-c2ccc(O)cc2)n(Cc2ccc(C#CCN(C)C)cc2)c2ccc(O)cc12` [Example 4, 2-(4-Hydroxy-phenyl)-3-methyl-1-[4-(3-N,N-dimethyl-1-yl-prop-1-ynyl)-benzyl]-1H-indol-5-ol]: the Emax in the assay with Ishikawa cells was determined as 34%. The “RBA (Estrogen Receptor Affinity)” value on estrogen receptor [1] was 53. Also, at estrogen receptor [2], the Emax at 1 µM worked out at 34%.

Turning to `Cc1c(-c2ccc(O)cc2)n(Cc2ccc(C#CCN3CCCCC3)cc2)c2ccc(O)cc12` [Example 5, 2-(4-Hydroxy-phenyl)-3-methyl-1-[4-(3-piperidin-1-yl-prop-1-ynyl)-benzyl]-1H-indol-5-ol], in the assay with Ishikawa cells, the Emax turned out to be 27%. Further, the “RBA (Estrogen Receptor Affinity)” value on estrogen receptor [1] is 23. Also, on estrogen receptor [2], the Emax at 1 µM was found to be 17%.

`O=C(c1ccc(OCCN2CCCCC2)cc1)c1c(-c2ccc(O)cc2)sc2cc(O)ccc12` [Raloxifene]: the Emax with Ishikawa cells was found to be 5%. Further, the “stimulation of uterine growth” value in the assay with uterine growth is reported as “to a lesser extent than Tamoxifen”. In addition, the “ability to spare bone” value in the assay on bone [3] is “maintaining the ability to spare bone”.

As to `CC/C(=C(\c1ccccc1)c1ccc(OCCN(C)C)cc1)c1ccccc1` [Tamoxifen], the Emax with Ishikawa cells worked out at 0%. The “effect on the bone” value with bone [4] was “estrogen agonist-like effect on the bone”. In the assay with uterus, the “agonism in the uterus” value was “partial agonist in the uterus”.
